#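 Cells were grown in 96-well plates and exposed to each compound for 48 hours at five concentrations; endpoints were interpolated linearly between bracketing concentrations, or set to the highest concentration if not reached. Abbreviation: GI50, concentration required for 50% inhibition of growth. TGI marks complete inhibition of growth.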
# Assays:
# Experiment in all cases: inhibition of tumour cell growth, NCI panel, 48 h
# MCF7 breast = tested on: MCF7 breast
# RPMI-8226 leukemia = tested on: RPMI-8226 leukemia
# HOP-62 NSCLC = tested on: HOP-62 NSCLC
# SNB-19 CNS = tested on: SNB-19 CNS
# 786-0 renal = tested on: 786-0 renal
# KM12 colon = tested on: KM12 colon
# CAKI-1 renal = tested on: CAKI-1 renal
# SK-OV-3 ovarian = tested on: SK-OV-3 ovarian
# OVCAR-5 ovarian = tested on: OVCAR-5 ovarian
# A498 renal = tested on: A498 renal
# MDA-MB-231 breast = tested on: MDA-MB-231 breast
# HL-60(TB) leukemia = tested on: HL-60(TB) leukemia
# HCT-116 colon = tested on: HCT-116 colon
# NCI/ADR-RES ovarian = tested on: NCI/ADR-RES ovarian
# RXF 393 renal = tested on: RXF 393 renal
# HS 578T breast = tested on: HS 578T breast
# COLO 205 colon = tested on: COLO 205 colon
# IGROV1 ovarian = tested on: IGROV1 ovarian
# BT-549 breast = tested on: BT-549 breast
# T-47D breast = tested on: T-47D breast
# U251 CNS = tested on: U251 CNS
# NCI-H522 lung = tested on: NCI-H522 lung
# PC-3 prostate = tested on: PC-3 prostate
# UACC-257 melanoma = tested on: UACC-257 melanoma
# UO-31 renal = tested on: UO-31 renal
# SNB-75 CNS = tested on: SNB-75 CNS
# NCI-H226 lung = tested on: NCI-H226 lung
# OVCAR-8 ovarian = tested on: OVCAR-8 ovarian
# CCRF-CEM leukemia = tested on: CCRF-CEM leukemia
# SK-MEL-5 melanoma = tested on: SK-MEL-5 melanoma
# NCI-H460 lung = tested on: NCI-H460 lung
# SK-MEL-2 melanoma = tested on: SK-MEL-2 melanoma
# ACHN renal = tested on: ACHN renal
# K-562 leukemia = tested on: K-562 leukemia
# SF-295 CNS = tested on: SF-295 CNS
# MALME-3M melanoma = tested on: MALME-3M melanoma
# SF-268 CNS = tested on: SF-268 CNS
# SF-539 CNS = tested on: SF-539 CNS
# M14 melanoma = tested on: M14 melanoma
# HT29 colon = tested on: HT29 colon
# UACC-62 melanoma = tested on: UACC-62 melanoma
# LOX IMVI melanoma = tested on: LOX IMVI melanoma
# OVCAR-3 ovarian = tested on: OVCAR-3 ovarian
# NCI-H23 lung = tested on: NCI-H23 lung
# A549 NSCLC = tested on: A549 NSCLC
# TK-10 renal = tested on: TK-10 renal
# OVCAR-4 ovarian = tested on: OVCAR-4 ovarian
# HCT-15 colon = tested on: HCT-15 colon
# MDA-MB-435 = tested on: MDA-MB-435
# EKVX NSCLC = tested on: EKVX NSCLC
# HOP-92 NSCLC = tested on: HOP-92 NSCLC
# SR leukemia = tested on: SR leukemia
# SW-620 colon = tested on: SW-620 colon
# MOLT-4 leukemia = tested on: MOLT-4 leukemia
# SK-MEL-28 melanoma = tested on: SK-MEL-28 melanoma
# DU-145 prostate = tested on: DU-145 prostate
# HCC-2998 colon = tested on: HCC-2998 colon
# SN12C renal = tested on: SN12C renal
compound,measurement,setting,value
Cc1[nH]n(C2=NCCN2)c(=O)c1C,TGI,MCF7 breast,> 100 µM
same,TGI,RPMI-8226 leukemia,> 100 µM
same,TGI,HOP-62 NSCLC,> 100 µM
same,TGI,SNB-19 CNS,> 100 µM
same,TGI,786-0 renal,> 100 µM
same,TGI,KM12 colon,> 100 µM
same,TGI,CAKI-1 renal,> 100 µM
same,TGI,SK-OV-3 ovarian,> 100 µM
same,TGI,OVCAR-5 ovarian,> 100 µM
same,TGI,A498 renal,> 100 µM
same,TGI,MDA-MB-231 breast,> 100 µM
same,TGI,HL-60(TB) leukemia,> 100 µM
same,TGI,HCT-116 colon,> 100 µM
same,TGI,NCI/ADR-RES ovarian,> 100 µM
same,TGI,RXF 393 renal,> 100 µM
same,TGI,HS 578T breast,> 100 µM
same,TGI,COLO 205 colon,> 100 µM
same,TGI,IGROV1 ovarian,> 100 µM
same,TGI,BT-549 breast,> 100 µM
same,TGI,T-47D breast,> 100 µM
same,TGI,U251 CNS,> 100 µM
same,TGI,NCI-H522 lung,> 100 µM
same,TGI,PC-3 prostate,> 100 µM
same,TGI,UACC-257 melanoma,> 100 µM
same,TGI,UO-31 renal,> 100 µM
same,TGI,SNB-75 CNS,> 100 µM
same,TGI,NCI-H226 lung,> 100 µM
same,TGI,OVCAR-8 ovarian,> 100 µM
same,TGI,CCRF-CEM leukemia,> 100 µM
same,TGI,SK-MEL-5 melanoma,> 100 µM
same,TGI,NCI-H460 lung,> 100 µM
same,TGI,SK-MEL-2 melanoma,> 100 µM
same,TGI,ACHN renal,> 100 µM
same,TGI,K-562 leukemia,> 100 µM
same,TGI,SF-295 CNS,> 100 µM
same,TGI,MALME-3M melanoma,> 100 µM
same,TGI,SF-268 CNS,> 100 µM
same,TGI,SF-539 CNS,> 100 µM
same,TGI,M14 melanoma,> 100 µM
same,TGI,HT29 colon,> 100 µM
same,TGI,UACC-62 melanoma,> 100 µM
same,TGI,LOX IMVI melanoma,> 100 µM
same,TGI,OVCAR-3 ovarian,> 100 µM
same,TGI,NCI-H23 lung,> 100 µM
same,TGI,A549 NSCLC,> 100 µM
same,TGI,TK-10 renal,> 100 µM
same,TGI,OVCAR-4 ovarian,> 100 µM
same,TGI,HCT-15 colon,> 100 µM
same,TGI,MDA-MB-435,> 100 µM
same,TGI,EKVX NSCLC,> 100 µM
same,TGI,HOP-92 NSCLC,> 100 µM
same,TGI,SR leukemia,> 100 µM
same,TGI,SW-620 colon,> 100 µM
same,TGI,MOLT-4 leukemia,> 100 µM
COC(=O)[C@@]1(Cc2ccccc2)[C@H]2c3cc(C(=O)N4CCCC4)n(Cc4ccc(OC)c(OC)c4)c3C[C@H]2CN1C(=O)c1ccccc1,GI50,SK-MEL-28 melanoma,10.1 µM
same,TGI,SK-MEL-28 melanoma,21.7 µM
same,GI50,MCF7 breast,13.8 µM
same,TGI,MCF7 breast,44.8 µM
same,GI50,RPMI-8226 leukemia,10.8 µM
same,TGI,RPMI-8226 leukemia,23.5 µM
same,GI50,HOP-62 NSCLC,8.34 µM
same,TGI,HOP-62 NSCLC,17.8 µM
same,GI50,SNB-19 CNS,17.4 µM
same,TGI,SNB-19 CNS,> 50 µM
same,GI50,786-0 renal,13.7 µM
same,TGI,786-0 renal,> 50 µM
same,GI50,KM12 colon,9.44 µM
same,TGI,KM12 colon,18.2 µM
same,GI50,CAKI-1 renal,14 µM
same,TGI,CAKI-1 renal,> 50 µM
same,GI50,SK-OV-3 ovarian,18.9 µM
same,TGI,SK-OV-3 ovarian,> 50 µM
same,GI50,OVCAR-5 ovarian,9.19 µM
same,TGI,OVCAR-5 ovarian,21.8 µM
same,GI50,DU-145 prostate,15 µM
same,TGI,DU-145 prostate,> 50 µM
same,GI50,A498 renal,10.4 µM
same,TGI,A498 renal,19.2 µM
same,GI50,MDA-MB-231 breast,8.17 µM
same,TGI,MDA-MB-231 breast,21.4 µM
same,GI50,HL-60(TB) leukemia,8.96 µM
same,TGI,HL-60(TB) leukemia,24.8 µM
same,GI50,HCT-116 colon,7.28 µM
same,TGI,HCT-116 colon,13.8 µM
same,GI50,NCI/ADR-RES ovarian,11.4 µM
same,TGI,NCI/ADR-RES ovarian,35.4 µM
same,GI50,RXF 393 renal,5.89 µM
same,TGI,RXF 393 renal,12.8 µM
same,GI50,HS 578T breast,6.56 µM
same,TGI,HS 578T breast,19.4 µM
same,GI50,COLO 205 colon,5.83 µM
same,TGI,COLO 205 colon,12.4 µM
same,GI50,BT-549 breast,8.46 µM
same,TGI,BT-549 breast,16.1 µM
same,GI50,T-47D breast,9.55 µM
same,TGI,T-47D breast,32.1 µM
same,GI50,HCC-2998 colon,8.86 µM
same,TGI,HCC-2998 colon,15.8 µM
same,GI50,U251 CNS,13 µM
same,TGI,U251 CNS,40.7 µM
same,GI50,NCI-H522 lung,8.73 µM
same,TGI,NCI-H522 lung,19.6 µM
same,GI50,PC-3 prostate,22.6 µM
same,TGI,PC-3 prostate,> 50 µM
same,GI50,UACC-257 melanoma,7.72 µM
same,TGI,UACC-257 melanoma,15.2 µM
same,GI50,UO-31 renal,8.5 µM
same,TGI,UO-31 renal,17.3 µM
same,GI50,SNB-75 CNS,17.4 µM
same,TGI,SNB-75 CNS,> 50 µM
same,GI50,NCI-H226 lung,9.78 µM
same,TGI,NCI-H226 lung,19.3 µM
same,GI50,OVCAR-8 ovarian,11.8 µM
same,TGI,OVCAR-8 ovarian,34.1 µM
same,GI50,CCRF-CEM leukemia,16.4 µM
same,TGI,CCRF-CEM leukemia,> 50 µM
same,GI50,SK-MEL-5 melanoma,7.71 µM
same,TGI,SK-MEL-5 melanoma,14.4 µM
same,GI50,NCI-H460 lung,9.12 µM
same,TGI,NCI-H460 lung,18.9 µM
same,GI50,SK-MEL-2 melanoma,8.76 µM
same,TGI,SK-MEL-2 melanoma,18.7 µM
same,GI50,ACHN renal,17.8 µM
same,TGI,ACHN renal,> 50 µM
same,GI50,K-562 leukemia,9.27 µM
same,TGI,K-562 leukemia,37.3 µM
same,GI50,SF-295 CNS,12.7 µM
same,TGI,SF-295 CNS,34.4 µM
same,GI50,MALME-3M melanoma,10.4 µM
same,TGI,MALME-3M melanoma,21 µM
same,GI50,SF-268 CNS,13.3 µM
same,TGI,SF-268 CNS,> 50 µM
same,GI50,SF-539 CNS,9.73 µM
same,TGI,SF-539 CNS,18.1 µM
same,GI50,M14 melanoma,11.5 µM
same,TGI,M14 melanoma,25.7 µM
same,GI50,HT29 colon,9.12 µM
same,TGI,HT29 colon,25 µM
same,GI50,UACC-62 melanoma,7.49 µM
same,TGI,UACC-62 melanoma,15.8 µM
same,GI50,LOX IMVI melanoma,9.12 µM
same,TGI,LOX IMVI melanoma,16.8 µM
same,GI50,OVCAR-3 ovarian,9.03 µM
same,TGI,OVCAR-3 ovarian,21 µM
same,GI50,NCI-H23 lung,11.6 µM
same,TGI,NCI-H23 lung,36.1 µM
same,GI50,A549 NSCLC,13.7 µM
same,TGI,A549 NSCLC,46.2 µM
same,GI50,TK-10 renal,16 µM
same,TGI,TK-10 renal,43.9 µM
same,GI50,OVCAR-4 ovarian,16.4 µM
same,TGI,OVCAR-4 ovarian,> 50 µM
same,GI50,HCT-15 colon,7.77 µM
same,TGI,HCT-15 colon,14.5 µM
same,GI50,MDA-MB-435,11.7 µM
same,TGI,MDA-MB-435,32.8 µM
same,GI50,EKVX NSCLC,9.84 µM
same,TGI,EKVX NSCLC,21.2 µM
same,GI50,SN12C renal,9.96 µM
same,TGI,SN12C renal,24.8 µM
same,GI50,HOP-92 NSCLC,13.3 µM
same,TGI,HOP-92 NSCLC,28 µM
same,GI50,SW-620 colon,6.92 µM
same,TGI,SW-620 colon,13.4 µM
same,GI50,MOLT-4 leukemia,7.94 µM
same,TGI,MOLT-4 leukemia,32.8 µM

# — PubChem BioAssay (NCI)
